According to patent US5578596A, “2-alkoxy-5,6,7,8-tetrahydroquinoxaline derivatives, and production method and use thereof” (Asahi Kasei Kogyo Kabushiki Kaisha, priority 1992, dated 1996):

What was measured:
[1] = system: Suncus murinus (motion sickness emesis); test: Activities against motion sickness: acceleration-stimulus induced emesis in suncus; format: in vivo; settings: 30 min before acceleration-stimulus (4 cm, 1 Hz), observed 10 min, hydrochloride, 4 suncus
Text: The activities of individual compounds against motion sickness were examined using Suncus murinus. Suncus murinus is a small animal belonging to the Soricidae family. It has been known that suncus is likely to suffer from motion sickness and is susceptible to occurrence of emesis [see "Seitai-no-kagaku (Science of living body)", 41, 538 (1990)]. Suncus is likely to show symptoms like the symptoms of human motion sickness under the stimulus of simple acceleration, finally leading to the occurrence of emesis. It has been recognized that motion sickness is caused by the occurrence of disorder in information, such as vision, equilibrium sense and the like, or by a stimulus which has never been memorized. Further, it has been recognized that the disorder in the inner earvestibular nucleus pathway and the high-order function of brain take part in the occurrence of motion sickness. Therefore, medicines capable of suppressing the occurrence of emesis of suncus would be useful for preventing and treating motion sickness, space sickness, emesis, dizziness and the like.
In this test, test compounds were individually administered intraperitoneally to suncus.
The time for occurrence of emesis was measured with respect to each of the test compounds, and the results are shown in Table 3.

[2] = target: T1, serotonin 1A (5HT1A) receptor (Rattus norvegicus, UniProt P19327); test: Affinity for serotonin 1A (5HT1A) receptor: inhibition of 3H-8-OH-DPAT binding to rat hippocampal membrane fraction; settings: test compound as hydrochloride
T1 construct: The resultant precipitate was used as a rat hippocampal membrane fraction in the following procedures; from tissue; host or cells: hippocampal membrane fraction of male SD rat (7 weeks old; animals from Charles River)
T1 sequence (P19327 1-422): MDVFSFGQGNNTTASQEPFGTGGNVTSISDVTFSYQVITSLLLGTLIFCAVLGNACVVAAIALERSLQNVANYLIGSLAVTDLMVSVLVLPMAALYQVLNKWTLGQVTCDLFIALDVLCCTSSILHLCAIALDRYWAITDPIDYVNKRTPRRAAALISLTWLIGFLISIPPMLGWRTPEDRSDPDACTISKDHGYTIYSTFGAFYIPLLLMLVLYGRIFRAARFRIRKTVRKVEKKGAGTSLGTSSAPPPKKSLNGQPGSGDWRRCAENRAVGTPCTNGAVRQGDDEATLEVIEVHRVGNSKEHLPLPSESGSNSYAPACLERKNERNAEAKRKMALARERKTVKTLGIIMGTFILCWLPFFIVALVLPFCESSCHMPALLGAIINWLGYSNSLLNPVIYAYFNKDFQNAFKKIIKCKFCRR
Description: 1. Affinity for serotonin 1A (5HT1A) receptor
(A) Preparation of rat hippocampal membrane fraction
A male SD strain rat (7-week old; Charles River) was decapitated, and brain was taken out therefrom quickly. 50 mM Tris-HCl buffer (pH 7.4) was added to the brain under ice cooling to obtain a suspension. The resultant suspension was homogenized, and then subjected to centrifugation at 48000 g for 15 minutes, to thereby obtain a precipitate. The precipitate was resuspended in the same Tris-HCl buffer as used above. The resultant suspension was incubated at 30° C. for 20 minutes to decompose endogenous serotonin of the rat hippocampal membrane, followed by centrifugation at 48000 g for 15 minutes to thereby obtain a precipitate. The resultant precipitate was used as a rat hippocampal membrane fraction in the following procedures.
(B) Method for the evaluation of the binding ability of ^3 H-8-hydroxy-dipropylaminotetralin (^3 H-8-OH-DPAT) to serotonin 1A receptor
The rat hippocampal membrane fraction prepared in step (A) above (about 100 to 200 μg in terms of proteins) was reacted with 0.5 nM (final concentration) ^3 H-8-OH-DPAT (which is commercially available from DuPont-NEN Research Products) and 10 μM (final concentration) pargyline (which is commercially available from Sigma Chemical Company) at 30° C. for 30 minutes to effect a reaction. The resultant reaction mixture was subjected to suction filtration using a Whatman GF/C filter, to thereby terminate the reaction. The radio-activity of ^3 H-8-OH-DPAT adsorbed on the filter was determined using a liquid scintillation counter. The obtained value is regarded as a total amount (TB) of specifically binding ^3 H-8-OH-DPAT and non-specifically binding ^3 H-8-OH-DPAT.
On the other hand, substantially the same procedure as mentioned above was repeated, except that 10 μM (final concentration) serotonin was added to the ^3 H-8-OH-DPAT and pargyline. The radioactivity of ^3 H-8-OH-DPAT adsorbed on the filter was determined in the same manner as mentioned above. The obtained value is regarded as the amount (NB) of non-specifically binding ^3 H-8-OH-DPAT.
Further, substantially the same procedure as mentioned above was repeated, except that, instead of serotonin, a test compound was used in a predetermined concentration. The radioactivity of ^3 H-8-OH-DPAT adsorbed on the filter was determined in the same manner as mentioned above. The obtained value is regarded as the amount (DTB) of binding ^3 H-8-OH-DPAT.
(C) Calculation of Ki value
The inhibition ratio of the test compound (at a certain concentration) against the binding of 3H-8-OH-DPAT (the inhibition ratio is hereinafter referred to simply as "binding inhibition ratio") was calculated according to the following formula:
Binding inhibition ratio (%)=100-(DTB-NB).div.(TB-NB)×100
With respect to each of the test compounds, the binding inhibition ratios at various concentrations (from a higher concentration to a lower concentration) were determined. The binding inhibition ratios were plotted, taking the logarithmic value of the concentration of test compound as the abscissa value, and the binding inhibition ratio as the ordinate value. Then, a curve was drawn by non-linear least square method.
The Ki value was determined according to the following formula:
[L] is the concentration (0.2 nM) of a radioactive ligand (^3 H-8-OH-DPAT) used in the test;

SMILES | Time for occurrence of emesis ([1]; 3 mg/kg intraperitoneal) | Ki [2] [nM] | Time for occurrence of emesis ([1]; 1 mg/kg intraperitoneal)
c1cnc(N2CCN(CCCCOc3cnc4c(n3)CCCC4)CC2)nc1 [Compound 301, 2-[4-{4-(2-Pyrimidinyl)-1-piperazinyl}butoxy]-5,6,7,8-tetrahydroquinoxaline] | Emesis did not occur | 6 | 
Cc1nc2c(nc1OCCCCN1CCN(c3ccccn3)CC1)CCCC2 [Compound 409] |  | 16 | 
Cc1nc2c(nc1OCCCCN1CCN(c3ncccn3)CC1)CCCC2 [Compound 410] |  | 24 | 
Cc1cc(C)nc(N2CCN(CCCCOc3cnc4c(n3)CCCC4)CC2)n1 [Compound 481, 2-[4-{4-(4,6-Dimethyl-2-pyrimidinyl)-1-piperazinyl}butoxy]-5,6,7,8-tetrahydroquinoxaline] |  | 5.3 | 
Clc1cccc(N2CCN(CCCCOc3cnc4c(n3)CCCC4)CC2)n1 [Compound 500, 2-[4-{4-(6-Chloro-2-pyridyl)-1-piperazinyl}butoxy]-5,6,7,8-tetrahydroquinoxaline] |  | 2.1 | Emesis did not occur
Cc1cccc(N2CCN(CCCCOc3cnc4c(n3)CCCC4)CC2)n1 [Compound 501, 2-[4-{4-(6-Methyl-2-pyridyl)-1-piperazinyl}butoxy]-5,6,7,8-tetrahydroquinoxaline] |  | 0.6 | Emesis did not occur
Clc1cccnc1N1CCN(CCCCOc2cnc3c(n2)CCCC3)CC1 [Compound 502, 2-[4-{4-(3-Chloro-2-pyridyl)-1-piperazinyl}butoxy]-5,6,7,8-tetrahydroquinoxaline] |  | 13 | 
Cc1ccnc(N2CCN(CCCCOc3cnc4c(n3)CCCC4)CC2)n1 [Compound 504, 2-[4-{4-(4-Methyl-2-pyrimidinyl)-1-piperazinyl}butoxy]-5,6,7,8-tetrahydroquinoxaline] |  | 3.9 | Emesis did not occur
c1ccc(N2CCN(CCCCCOc3cnc4c(n3)CCCC4)CC2)nc1 [Compound 511, 2-[5-{4-(2-Pyridyl)-1-piperazinyl}pentoxy]-5,6,7,8-tetrahydroquinoxaline] |  | 8.4 | 
c1cnc(N2CCN(CCCCCOc3cnc4c(n3)CCCC4)CC2)nc1 [Compound 512, 2-[5-{4-(2-pyrimidinyl)-1-piperazinyl}pentoxy]-5,6,7,8-tetrahydroquinoxaline] |  | 23 | 
N#Cc1cccnc1N1CCN(CCCCOc2cnc3c(n2)CCCC3)CC1 [Compound 514, 2-[4-{4-(3-Cyano-2-pyridyl)-1-piperazinyl}butoxy]-5,6,7,8-tetrahydroquinoxaline] |  | 4.8 | 
CCOc1cccc(N2CCN(CCCCOc3cnc4c(n3)CCCC4)CC2)n1 [Compound 524, 2-[4-{4-(6-Ethoxy-2-pyridyl)-1-piperazinyl}butoxy]-5,6,7,8-tetrahydroquinoxaline] |  | 1.9 | Emesis did not occur
c1ccc(N2CCN(CCCOc3cnc4c(n3)CCCC4)CC2)nc1 [Compound 537, 2-[3-{4-(2-Pyridyl)-1-piperazinyl}propoxy]-5,6,7,8-tetrahydroquinoxaline] |  | 14 | 
c1cnc(N2CCN(CCCOc3cnc4c(n3)CCCC4)CC2)nc1 [Compound 538, 2-[3-{4-(2-pyrimidinyl)-1-piperazinyl}propoxyl]-5,6,7,8-tetrahydroquinoxaline] |  | 25 | 
COc1cccc(N2CCN(CCCCOc3cnc4c(n3)CCCC4)CC2)n1 [Compound 539, 2-[4-{4-(6-Methoxy-2-pyridyl)-1-piperazinyl}butoxy]-5,6,7,8-tetrahydroquinoxaline] |  | 1.3 | Emesis did not occur
COc1cc(OC)nc(N2CCN(CCCCOc3cnc4c(n3)CCCC4)CC2)n1 [Compound 549, 2-[4-{4-(4,6-Dimethoxy-2-pyrimidinyl)-1-piperazinyl}butoxy]-5,6,7,8-tetrahydroquinoxaline] |  | 6.6 | 
COc1cccnc1N1CCN(CCCCOc2cnc3c(n2)CCCC3)CC1 [Compound 557, 2-[4-{4-(3-Methoxy-2-pyridyl)-1-piperazinyl}butoxy]-5,6,7,8-tetrahydroquinoxaline] |  | 1.5 | 
Cc1cc(C)c(C#N)c(N2CCN(CCCCOc3cnc4c(n3)CCCC4)CC2)n1 [Compound 561, 2-[4-{4-(3-Cyano-4-6-dimethyl-2-pyridyl)-1-piperazinyl}butoxy]-5,6,7,8-tetrahydroquinoxaline] |  | 16 | 
COc1cc(C)nc(N2CCN(CCCCOc3cnc4c(n3)CCCC4)CC2)n1 [Compound 562, 2-[4-{4-(4-Methoxy-6-methyl-2-pyrimidinyl)-1-piperazinyl}butoxy]-5,6,7,8-tetrahydroquinoxaline] | Emesis did not occur | 11 | 
Cc1cc(C)nc(N2CCN(CCCCOc3cnc4c(n3)CCCC4)CC2)c1 [Compound 569, 2-[4-{4-(4,6-Dimethyl-2-pyridyl)-1-piperazinyl}butoxy]-5,6,7,8-tetrahydroquinoxaline] |  | 6.8 | 
Cc1ccc(C)c(N2CCN(CCCCOc3cnc4c(n3)CCCC4)CC2)n1 [Compound 598, 2-[4-{4-(3,6-Dimethyl-2-pyridyl)-1-piperazinyl}butoxy]-5,6,7,8-tetrahydroquinoxaline] |  | 25 | 
CCCOc1cccc(N2CCN(CCCCOc3cnc4c(n3)CCCC4)CC2)n1 [Compound 629, 2-[4-{4-(6-Propoxy-2-pyridyl)-1-piperazinyl}butoxy]-5,6,7,8-tetrahydroquinoxaline] | Emesis did not occur | 1.8 | 
CC(C)Oc1cccc(N2CCN(CCCCOc3cnc4c(n3)CCCC4)CC2)n1 [Compound 630, 2-[4-{4-(6-Isopropoxy-2-pyridyl)-1-piperazinyl}butoxy]-5,6,7,8-tetrahydroquinoxaline] | Emesis did not occur | 3 | 
FC(F)(F)c1ccnc(N2CCN(CCCCOc3cnc4c(n3)CCCC4)CC2)c1 [Compound 639, 2-[4-{4-(4-Trifluoromethyl-2-pyridyl)-1-piperazinyl}butoxy]-5,6,7,8-tetrahydroquinoxaline] |  | 11 | 
FC(F)(F)c1cccc(N2CCN(CCCCOc3cnc4c(n3)CCCC4)CC2)n1 [Compound 640, 2-[4-{4-(6-Trifluoromethyl-2-pyridyl)-1-piperazinyl}butoxy]-5,6,7,8-tetrahydroquinoxaline] |  | 5.2 | 
